Source: PubChem BioAssay (NCI)
Values joined by “and” are separate entries in the source; they are usually repeats but may differ in a detail not shown here. Identical values can stand only once.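 Where inhibition never reached the appropriate level, the endpoint shown equals the highest concentration tested. Otherwise, values were interpolated linearly from a five-concentration, 48-hour dose response in 96-well plates. GI50: concentration for 50% inhibition of growth. TGI: total growth inhibition.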

Columns and labels:
Assay in all cases: NCI tumour cell line growth inhibition, 48 h
MDA-N = tested on: MDA-N
DMS 114 small cell lung = tested on: DMS 114 small cell lung
RXF-631 renal = tested on: RXF-631 renal
XF 498 CNS = tested on: XF 498 CNS
KM20L2 colon = tested on: KM20L2 colon
SNB-78 CNS = tested on: SNB-78 CNS
M19-MEL melanoma = tested on: M19-MEL melanoma
HOP-18 NSCLC = tested on: HOP-18 NSCLC
P388/ADR leukemia = tested on: P388/ADR leukemia
P388 leukemia = tested on: P388 leukemia
SN12K1 renal = tested on: SN12K1 renal

Compound	TGI (MDA-N)	TGI (DMS 114 small cell lung)	TGI (XF 498 CNS)	TGI (KM20L2 colon)	TGI (SNB-78 CNS)	TGI (M19-MEL melanoma)	TGI (HOP-18 NSCLC)	further results
COc1cccc(/C=C/c2ccnc3ccccc23)c1OC	> 10 µM	–	–	–	–	–	–	–
CCN(CC)c1ccc(C2NC(=O)c3ccccc3N2)cc1 (stereo not drawn)	2.55 µM	–	–	–	–	–	–	–
N#C/C(=C\c1cc(O)ccc1O)C(N)=O	–	70.9 µM	> 100 µM	> 100 µM	> 100 µM	> 100 µM	–	TGI (RXF-631 renal): > 100 µM
COc1cccc2nc3ccccc3nc12	> 100 µM	–	–	–	–	–	–	–
O=C(CO[N+](=O)[O-])OC/C=C/c1ccccc1	–	> 100 µM	–	> 100 µM	–	> 100 µM	–	–
CN(C)C(=O)NC(=S)N(C)C	–	> 100 µM	> 100 µM	> 100 µM	> 100 µM	> 100 µM	> 100 µM	–
O=C1C=CC(=Nc2cccc3c(N=C4C=CC(=O)O4)cccc23)O1	69.1 µM	–	–	–	–	–	–	–
CN(NC1OC(CO)C(O)C(O)C1O)c1ccccc1 (stereo not drawn)	–	–	30.6 µM	> 100 µM	> 100 µM	> 100 µM	> 100 µM	–
COc1ccc(-c2ccccc2)c2[nH]c3c(c12)CCNC3=O	–	–	–	> 100 µM	> 100 µM	> 100 µM	–	–
O=C(N/C(=C\c1ccccc1Cl)c1nc2ccccc2[nH]1)c1ccccc1	–	> 100 µM	57.5 µM	> 100 µM	> 100 µM	> 100 µM	–	TGI (RXF-631 renal): > 100 µM
Cc1cc(=O)n(-c2c(C)cccc2Cl)c(/C=C(\O)c2ccncc2)n1	–	> 100 µM	–	> 100 µM	> 100 µM	–	> 100 µM	TGI (RXF-631 renal): > 100 µM
COc1cc(/C=C/c2ccc(Br)cc2)cc(OC)c1OC	–	52.8 µM	65.9 µM	29.8 µM	–	> 71.5 µM	> 74.6 µM	TGI (RXF-631 renal): > 75.4 µM
COc1ccc2c(c1)[n+](=O)c(C(=O)C/C(=N/NC(=O)C[N+](C)(C)C)C(=O)Nc1cccc(C)c1C)c(C)n2O	–	> 100 µM	–	> 100 µM	> 100 µM	> 100 µM	> 100 µM	TGI (RXF-631 renal): > 100 µM
O=C(COc1ccc(OCC(=O)N2C(=O)CN(c3ccccc3)C2=S)cc1)N1C(=O)CN(c2ccccc2)C1=S	> 100 µM	–	–	–	–	–	–	GI50 (MDA-N): > 25 µM
CC1=C(C(=O)NCc2ccccc2)C(c2ccccc2C)C(C(=O)NCc2ccccc2)=C(C)N1	–	> 67.7 µM	–	> 75.5 µM	> 100 µM	> 75.8 µM	> 91.2 µM	TGI (RXF-631 renal): > 100 µM
C(=Nc1cnc2ccccc2c1)c1ccc2ccccc2n1	> 100 µM	–	–	–	–	–	–	–
O=C(/C=C/C(Cl)(Cl)Cl)Nc1ccc(Cl)cc1	13.8 µM	–	–	–	–	–	–	–
CC(=O)OCC1OC(OCc2ccccc2)C(Br)C(OC(C)=O)C1OC(C)=O (stereo not drawn)	–	–	> 100 µM	> 100 µM	> 100 µM	> 100 µM	> 100 µM	TGI (RXF-631 renal): > 100 µM
CC(C)N(C(=O)C12C3C4C1C1C2C3C41I)C(C)C (stereo not drawn)	–	> 100 µM	> 100 µM	–	> 100 µM	> 100 µM	–	TGI (RXF-631 renal): > 100 µM
O=C(O)c1c(Cl)c(Cl)c(Cl)c(Cl)c1C(=O)Nc1ccc2cn[nH]c2c1	> 100 µM	–	–	–	–	–	–	–

Compound	TGI (MDA-N)	TGI (DMS 114 small cell lung)	TGI (XF 498 CNS)	TGI (KM20L2 colon)	TGI (SNB-78 CNS)	TGI (M19-MEL melanoma)	TGI (HOP-18 NSCLC)	further results
COC1OC(CBr)C(OC(=O)c2ccccc2)C(OS(=O)(=O)c2ccc(C)cc2)C1Br (stereo not drawn)	–	–	–	> 100 µM	> 100 µM	> 100 µM	–	–
O=c1ccc(=O)n(-c2ccccc2)[nH]1	> 100 µM	–	–	–	–	–	–	–
COc1cc2c(cc1O)CN1CCC23C=C[C@@H](O)CC13 (stereo partly drawn)	–	> 100 µM	–	> 100 µM	> 100 µM	> 100 µM	> 100 µM	–
O=C(N/N=C(/c1nc2ccc([N+](=O)[O-])cc2[nH]c1=O)C(O)c1ccc([N+](=O)[O-])cc1)c1ccncc1 (stereo not drawn)	–	> 100 µM	> 100 µM	–	> 100 µM	> 100 µM	> 100 µM	–
COc1ccc(S(=O)(=O)N[C@H](C(=O)O)c2ccccc2)cc1	–	> 100 µM	> 100 µM	> 100 µM	> 100 µM	> 100 µM	> 100 µM	–
CN(C)CCn1cnc2ncccc2c1=O	–	> 100 µM	> 100 µM	> 100 µM	> 100 µM	> 100 µM	–	–
CCN(CC)CC(=O)NC1c2ccccc2Oc2c(C)cccc21 (stereo not drawn)	–	> 100 µM	> 100 µM	> 100 µM	> 100 µM	> 100 µM	–	–
COc1cc(-c2ccc(NC(=O)SCCC(=O)O)cc2OC)ccc1NC(=O)SCCC(=O)O	–	> 100 µM	> 100 µM	> 100 µM	> 100 µM	> 100 µM	–	–
COc1ccc2nc3cc([N+](=O)[O-])ccc3c(NNc3ccccc3)c2c1	> 100 µM	–	–	–	–	–	–	–
CC(=O)OC(C)(C)/C=C/C(=O)[C@](C)(O)[C@H]1[C@H](O)C[C@@]2(C)[C@@H]3CC=C4[C@@H](C=C(O)C(=O)C4(C)C)[C@]3(C)C(=O)C[C@]12C	1.57 µM	–	–	–	–	4.2 µM and 3.01 µM and 3.43 µM	–	GI50 (P388/ADR leukemia): 175 nM; TGI (P388/ADR leukemia): 3040 nM and 2000 nM; GI50 (P388 leukemia): 89.5 nM; TGI (P388 leukemia): 2.32 µM and 14.3 µM; GI50 (RXF-631 renal): 18 nM; TGI (RXF-631 renal): 0.434 µM and 0.152 µM; GI50 (SN12K1 renal): 15.5 nM; TGI (SN12K1 renal): 287 nM and 60.4 nM
C[C@H](CS)C(=O)N1c2ccccc2C[C@H]1C(=O)O	> 100 µM	–	–	–	–	–	–	–
COC1[C@H](NC(=O)OC(C)(C)C)C(=O)N1Cc1ccccc1 (stereo partly drawn)	–	> 100 µM	> 100 µM	> 100 µM	> 100 µM	> 100 µM	–	–
O=CNc1ccc(S(=O)(=O)c2ccc(NC=O)cc2)cc1	> 100 µM	–	–	–	–	–	–	–
CCOC(=O)C(NO)C(Sc1ccccc1)c1ccc(OC)cc1 (stereo not drawn)	–	> 100 µM	> 100 µM	> 100 µM	> 100 µM	> 100 µM	> 100 µM	–
CC1CCC(=O)C(C(O)CC2CC(=O)N(c3ccccc3)C(=O)C2)C1 (stereo not drawn)	–	> 100 µM	–	> 100 µM	> 100 µM	> 100 µM	> 100 µM	–
O=C(CCl)Nc1cc(Cl)c(Cl)cc1Cl	3.19 µM	–	–	–	–	–	–	–
CCCCCCCCCCCCCCCCc1c(C(=O)OC)nc(NN)[nH]c1=O	–	> 50 µM	> 50 µM	> 50 µM	> 50 µM	> 50 µM	> 50 µM	TGI (RXF-631 renal): > 50 µM
Clc1ccc(CCc2ccncn2)c(Cl)c1	–	> 100 µM	–	> 100 µM	> 100 µM	> 100 µM	> 100 µM	TGI (RXF-631 renal): > 100 µM
CCCCCCCCCCSC(=O)NC	–	–	54 µM	–	–	> 100 µM	> 100 µM	–
